{"source": "patent US20220313620A1", "about": "“COMPOSITION FOR PREVENTING AND TREATING TAUOPATHIES” (SERVICIO ANDALUZ DE SALUD, priority 2019, published 2022)", "key": {"Protein Kinase A (PKA)": {"test_system": "Protein Kinase A (PKA)", "test": "Hippocampal PKA (western blot) after 10 days of oral drinking", "format": "in vivo, Wistar rats", "conditions": "oral by drinking 100 mg/Kg for 10 days, hippocampus, FIG. 10A.2", "experimental": "(§1) Animal experimental procedures were carried out in accordance with the European Communities directive 2010/63/EU and Spanish legislation (Real Decreto 53/2013). The protocol was approved by the Research and approved by Ethics Committee for Animal Experiments of the University of Malaga, Spain. In accordance with the ARRIVE guidelines, all efforts were made to minimize animal suffering and to reduce the number of animals used per experimental group. Chronic drinking experiments on Wistar rats were performed on 20 male rats. All adult rats, ageing 2 months (≈300 g of body weight), were provided by Charles River Laboratories (Barcelona, Spain). The animals were housed individually under a standard 12 h light-dark cycle in a room with temperature and humidity control. Water and rat chow pellets were provided ad libitum throughout the course of the present study. […]\n(§2) Western Blot Analysis. […] Bands were quantified by densitometric analysis using ImageJ software (Rasband, WS, ImageJ, US National Institutes of Health, Bethesda, Md., USA). […] The results were expressed as the protein/α-Adaptin ratio or phosphorylated/total protein ratio and normalized to the control group (Y axis represents ‘fold mean of the control values’).\n(§3) All data are expressed as mean±SEM. […]"}, "[1]": {"test_system": "Cyclin Dependent Kinase 5 (CDK5)", "test": "Hippocampal CDK5, p35 and p25 protein levels (western blot) after 10 days of oral drinking", "format": "in vivo, Wistar rats", "conditions": "oral by drinking 100 mg/Kg for 10 days, hippocampus, FIG. 8A", "experimental": "Animal experimental procedures were carried out in accordance with the European Communities directive 2010/63/EU and Spanish legislation (Real Decreto 53/2013). The protocol was approved by the Research and approved by Ethics Committee for Animal Experiments of the University of Malaga, Spain. In accordance with the ARRIVE guidelines, all efforts were made to minimize animal suffering and to reduce the number of animals used per experimental group. Chronic drinking experiments on Wistar rats were performed on 20 male rats. All adult rats, ageing 2 months (≈300 g of body weight), were provided by Charles River Laboratories (Barcelona, Spain). The animals were housed individually under a standard 12 h light-dark cycle in a room with temperature and humidity control. Water and rat chow pellets were provided ad libitum throughout the course of the present study.\nCaromax®-D-Pinitol (3-O-methyl-d-chiro-inositol, DPIN, 98% purity) and Caromax®-D-Chiro-inositol (cis-1,2,3-trans-3,5,6-cyclohexanehexol, DCI) were provided by Euronutra SL (Málaga, Spain). They were dissolved in water to orally daily administration by drinking and/or gavage at dose of 100 mg/Kg of body weight (BW) in a 1 ml/kg of BW volume to Zucker and Wistar rats for 4 weeks (28 days) and 10 days, respectively (FIG. 1). During the drinking treatments, the concentration of inositols in the water were updated considering the daily increase of BW of the rats and the possible loss of water by evaporation.\nBrain extract. […]\nas §2, §3"}, "[2]": {"test_system": "AMP-activated Protein Kinase (AMPK)", "test": "Hippocampal AMPK (western blot) after 10 days of oral drinking", "format": "in vivo, Wistar rats", "conditions": "oral by drinking 100 mg/Kg for 10 days, hippocampus, FIG. 10", "experimental": "as §1, §2, §3"}, "Glucagon": {"test_system": "Glucagon", "test": "Plasma glucagon (EIA) after acute oral gavage", "format": "in vivo", "conditions": "oral 500 mg/kg, adult male Wistar rats, FIG. 3E", "experimental": "The protocol was approved by the Ethics Committee for Animal Experiments of the University of Malaga.\nD-Pinitol (3-0-methyl-D-chiro-inositol) was generously provided by EURONUTRA SL (https://www.euronutra.com/, Malaga, Spain), in the form of crystalline fine powder (lot: PPN-M0201). For acute treatments, D-Pinitol was dissolved in water to be administered by gavage (orally) at different concentrations (100 mg/Kg and 500 mg/Kg), drug was administered at a volume of 1 ml/kg.\nAfter 18 hours of fasting, D-Pinitol dissolved in water was administered acutely by gavage (100 mg/kg in a first study, and 500 mg/kg in a subsequent study). After administration, the animals were sacrificed in groups at different times (being time 0 the administration of D-Pinitol). For the first study (100 mg/kg), groups of animals were sacrificed at times: 10, 20, 30, 60, 120, 240 and 360 minutes after administration; for the second study (500 mg/kg), animals were sacrificed at times: 60, 120 and 240 minutes after administration. […]\nThe plasma levels of insulin and ghrelin were determined with an enzyme-linked immunosorbent assay (ELISA) method using commercial kits: EMD Millipore Corporation (Billerica, Mass., USA) Cat. #EZRMI-13K and Cat. #EZRGRT-91K, respectively. Glucagon levels in plasma was determined with a Glucagon Enzyme Immunoassay (EIA) Kit: Cat. #RAB0202 Sigma-Aldrich (Saint Louis, Mo., USA). […]"}}}
{"smiles": "COC1[C@@H](O)[C@@H](O)C(O)[C@H](O)[C@H]1O", "note": "(stereo partly drawn) [DPIN, (1S,2S,4S,5R)-6-methoxycyclohexane-1,2,3,4,5-pentol]", "values": [{"measurement": "total amount of PKA", "setting": "Protein Kinase A (PKA)", "result": "significant increase"}, {"measurement": "amount of p25", "setting": "[1]", "result": "significantly decreased"}, {"measurement": "amount of p35 subunit", "setting": "[1]", "result": "significantly decreased"}, {"measurement": "total amount of CDK5", "setting": "[1]", "result": "does not vary"}, {"measurement": "kinase activation and total expression of AMPK", "setting": "[2]", "result": "No other changes"}, {"measurement": "glucagon secretion", "setting": "Glucagon", "result": "Increase"}]}
